Article PMC7346179, “Fe Porphyrin-Based SOD Mimic and Redox-Active Compound, (OH)FeTnHex-2-PyP^4+, in a Rodent Ischemic Stroke (MCAO) Model: Efficacy and Pharmacokinetics as Compared to Its Mn Analogue, (H2O)MnTnHex-2-PyP^5+” (Antioxidants, 2020)

Legend:
[1] = 2-h PK study in rats that underwent MCAO; assay type: in vivo
Description: Samples were prepared as described in [10] with modifications to accommodate the small tissue sizes and enhance the detection sensitivity. Quantitative liquid chromatography electrospray-ionization tandem mass spectrometry (LCMS/MS) analysis was performed on a Shimadzu 20A series HPLC (LC)-Applied Biosystems/MDS Sciex API 3200 QTrap or API 4000 QTrap tandem-mass spectrometer (MS/MS) as described earlier. The use of heptafluorobutyric acid (HFBA) mobile phase modifier as an ion-pairing agent increases the overall lipophilicity and volatility, which increases the retention and ionization efficiency of the analytes, affording an abundance of HFBA-associated ions. […] (OH)FeTnBuOE-2-PyP^4+ was prepared as described for other Fe(III) N-alkylpyridylporphyrins and analogous (H2O)MnTnBuOE-2-PyP^5+ [13, 16]. The solvents employed were: A = 95:5 H2O:MeCN (0.1% HFBA); B = MeCN (0.1% HFBA). […] With the chosen solvent system, all four atropoisomers collapsed into a single peak, enhancing the sensitivity of the method to as low as 0.5 nM (nanomoles per L of tissue homogenate). Analyses were performed using a Phenomenex Luna C18 guard cartridge (ID × L, 2 × 4 mm) only. […] Their structures are also shown. […] The response was calculated as the ratio between the standard peak area and the internal standard peak area. Another possible cause for the failure of therapeutics in stroke may be their slow accumulation in the brain, i.e., not being there in time to prevent the burst of reactive species and rapid activation of transcription factors, which perpetuate oxidative stress. We therefore conducted short-term 2-h PK to evaluate how fast post-MCAO our drug gets into the brain. Three rats per compound were subjected to 90 min of transient right MCAO as reported. The first dose of 0.225 mg/kg was given IV via the […] at 5 min after ischemia/reperfusion. The second dose of 0.225 mg/kg was given SC at 30 min after reperfusion. Blood was collected at 2 h and plasma harvested. Rats were perfused with heparin saline (2000 IU/500 mL) until no reddish fluid came out from the right atrium. Then, the liver, and left and right brain were collected and placed on dry ice and stored at -20 °C. Plasma, liver, and brain were analyzed by LCMS/MS.

[2] = cited from earlier work
mouse MCAO stroke model = test: 3-day mouse MCAO efficacy study; assay type: in vivo, mice
Description: We performed a mouse MCAO study to define a dose of FeHex for a larger rat MCAO study. The 81 C57Bl/6J mice (8–10 weeks old) were subjected to 90 min of MCAO right hemisphere occlusion. Mice were fasted overnight before injury. They were under isoflurane anesthesia during ischemia, and the pericranial temperature was automatically controlled at 37 °C using a surface heating and cooling system. Ischemia was made through a small window on the left temporal bone, and the main trunk of the middle cerebral artery was transiently tied with a fine silk suture for 90 min. Muscle and skin layers were closed after ischemia/reperfusion. Mice were allowed to awake and survive for 3 days. […] Mice were sacrificed under deep anesthesia at 3 days post-ischemia/reperfusion. The brain was quickly frozen in −20 °C 2-methybutane and stored in the freezer for histological analysis. Liver and brain were taken for LCMS/MS analysis of the levels of FeHex. Body weight, rotarod performance, and Corner test were assessed before and 3 days after injury. Neurological deficit (neuroscore) and infarct volume were evaluated at 3 days after injury.
The rotarod test was performed on the day before surgery and 3 days after ischemia/reperfusion. Three trials were performed with a 15-min intra-trial rest. Mice were placed on the rod and then the machine was started. The speed was accelerated from 4 turns/min to 40 turns per min. The latency to fall from the rod was automatically recorded. The data are presented in % and are calculated as [(reading after injury)/(reading before surgery-baseline reading)] × 100. Neurological deficit was assessed based on the neuroscore system we previously used that includes the general status and motor and sensory functions. For the corner test, two clean boards were placed in “V” fashion at an angle of 30° relative to the walking axes and mice were left to walk in towards the apex of the “V”. Mice usually make left turns more frequently when injury is severe enough. The left turn was calculated from the number of left (L) turn/total turns (L + Right turn). Normal animals would have as many left as right turns (50% = normal). When all turns are to the left, the value at y-axis is 100%, the most severe score. Body weight loss is expressed as a difference in body weight at 3 days post-stroke minus body weight on the surgery day.

[3] = 3-day PK study in healthy mice; assay type: in vivo; conditions: for liver level: 6 h after last injection
Description: Samples were prepared as described in [10] with modifications to accommodate the small tissue sizes and enhance the detection sensitivity. Quantitative liquid chromatography electrospray-ionization tandem mass spectrometry (LCMS/MS) analysis was performed on a Shimadzu 20A series HPLC (LC)—Applied Biosystems/MDS Sciex API 3200 QTrap or API 4000 QTrap tandem-mass spectrometer (MS/MS) as described earlier. The use of heptafluorobutyric acid (HFBA) mobile phase modifier as an ion-pairing agent increases the overall lipophilicity and volatility, which increases the retention and ionization efficiency of the analytes, affording an abundance of HFBA-associated ions. […] Since oxygen atoms are buried within the porphyrin cavity and thus not easily solvated, these compounds maintain similar redox properties and lipophilicity as their parent hexyl analogs, which makes them co-elute from the HPLC column and thus can be used as internal standards. (OH)FeTnBuOE-2-PyP^4+ was prepared as described for other Fe(III) N-alkylpyridylporphyrins and analogous (H2O)MnTnBuOE-2-PyP^5+ [13, 16]. The solvents employed were: A = 95:5 H2O:MeCN (0.1% HFBA); B = MeCN (0.1% HFBA). […] With the chosen solvent system, all four atropoisomers collapsed into a single peak, enhancing the sensitivity of the method to as low as 0.5 nM (nanomoles per L of tissue homogenate). Analyses were performed using a Phenomenex Luna C18 guard cartridge (ID × L, 2 × 4 mm) only. […] Their structures are also shown. Calibration samples in the 1–300 nM or 0.1–30 μM range (depending on the expected levels of MP) were prepared by adding known amounts of serially diluted pure standards into the plasma or homogenates of related tissues. The response was calculated as the ratio between the standard peak area and the internal standard peak area.
The study was designed to follow the dosing regime in a 3-day mouse MCAO efficacy study. […] Three mice were used per compound in each study. Mice were sacrificed 6 h after the last injection at day 3 and blood and tissues (liver and brain) collected. Blood was centrifuged at 2500 rpm for 10 min and plasma was harvested. Plasma and tissues were analyzed on porphyrin content by LCMS/MS.

SOD-deficient E. coli = conditions: higher than MnHex; cited from earlier work
[4] = 0.225 mg/kg IV twice daily 3 days
[5] = SC and IV 0.5 mg/kg twice daily 3 days

monohydroxo Fe(III) meso-tetrakis(N-n-hexylpyridinium-2yl)porphyrin [FeHex]
level in injured (right) brain hemisphere ([1]; rats after 90-min MCAO, 0.225 mg/kg IV + 0.225 mg/kg SC, 2 h after reperfusion): ~ 55 nM
liver level relative to MnHex ([1]; rats after MCAO, 2 h): lower in the liver
plasma level relative to MnHex ([1]; rats after MCAO, 2 h): higher in plasma
log kcat(O2^•−), log of rate constant for catalysis of O2^•− dismutation [2]: 7.53
neuroscore (mouse MCAO stroke model; [4]): improved
p, Corner test vs vehicle (mouse MCAO stroke model; [4]): 0.09
p, body weight change vs vehicle (mouse MCAO stroke model; [4]): 0.0347
p, infarct volume vs vehicle (mouse MCAO stroke model; [4]): 0.48
p, neuroscore vs vehicle (mouse MCAO stroke model; [4]): 0.047
p, rotarod vs vehicle (mouse MCAO stroke model; [4]): 0.59
body weights (mouse MCAO stroke model; 0.225 mg/kg IV twice daily 3 days, from 90 min post ischemia/reperfusion): improved
infarct volume relative to vehicle (mouse MCAO stroke model; 0.05, 0.225 and 1 mg/kg IV twice daily 3 days): No significant change
liver level ([3]; IV 0.5 mg/kg twice daily 3 days): 290 nM
liver level ([3]; SC 0.5 mg/kg twice daily 3 days): 126 nM
liver levels relative to MnHex [3, 5]: much lower levels
plasma levels relative to MnHex [3, 5]: Higher levels
efficacy in SOD-deficient E. coli model relative to MnHex (SOD-deficient E. coli): ~ 2 orders of magnitude
